Test results: paper PMC7070953, “Design of Light-Sensitive Triggers for Endothelial NO-Synthase Activation” (Antioxidants, 2020)
Entries after “also recorded” stand apart in the source; their conditions may differ. Like-named read-outs stand apart in the source and are kept apart here.

Tests used:
nNOS [1] = target: T1, nNOS (Rattus norvegicus, UniProt P29476); design: made in house; conditions: value used in the Cheng-Prusoff equation; no reference given; read-out: Km of NADPH for nNOS; cited from earlier work
HUVEC cells [2] = test system: HUVEC cells; design: key to NO Formed upon Laser Excitation: +: NO formed under laser excitation; −: a lack of NO formed under laser excitation; conditions: cited from earlier work; for NO produced in HUVEC cells upon light activation (in words): ref 15 (NT1), ref 19 (NT2_5), 19 (NT2_7)
nNOS [3] = target: T1, nNOS; design: made in house; method as in PMID 30986510; conditions: a: protein 5–10 µM, [NTs] = 0–50 µM; read-out: Apparent Kd nNOS; cited from earlier work
[4] = design: method as in earlier work; conditions: cited from earlier work
HUVEC cells [5] = conditions: cited from earlier work
NOS = test system: NOS; design: method as in PMID 19222033, PMID 17263536; conditions: one and two-photon excitation; cited from earlier work
nNOS [6] = target: T1, nNOS; experiment: Flavin reduction of nNOS upon light irradiation at 365 nm (absorption changes); assay type: biochemical; design: made in house; calmodulin purchased from Sigma; conditions: for FAD/flavin reduction upon light excitation (in words): irradiation at 365 nm
Protocol: Light irradiation of the NT -nNOS complexes in the presence of NOHA, H4B, and Ca^2+/calmodulin was performed by a continuous irradiation with a Hg/Xe lamp (Hamamatsu, LC6 Lightningcure, 200 W) equipped with narrow-band interference filter to select 365 nm (Semrock FF01-370/36: center wavelength 370 nm, nominal bandwidth […]) during one minute. The absorption changes before and after irradiation were measured on a Cary5000 spectrophotometer from Agilent Technologies (Les Ulys, France).
100 mM NOHA, 100 mM Ca^2+, 1 µg recombinant calmodulin, 20 mM Tris Buffer at pH = 7.8, 100 mM NaCl; representative data out of 2 experiments.

[7] = Self-association of free NTs in buffer (fluorescence vs concentration, fluorescence anisotropy); assay type: physicochemical
Protocol: (§1) The apparent binding affinities of the NTs to the neuronal (nNOS) and endothelial (eNOS) isoforms of nitric oxide synthase (NOS) were assessed by changes in NT intrinsic fluorescence using two types of titrations. In the first method, aliquots (1 μL) were added to 100 μL buffer containing NOS protein (5 μM), and fluorescence emission spectra were recorded from 430–700 nm (λexcitation = 420 nm; slit widths = 5 nm) on a Shimadzu RF-5301PC fluorimeter. Spectra of intrinsic protein fluorescence and unbound NT were subtracted from protein/NT spectra and the fluorescence at 460 nm was plotted against NT concentration. In the second method, we measured fluorescence spectra at a fixed concentration of the NT (1–2µM) with a Cary Eclipse spectrophotometer set at T = 20 °C, with excitation wavelength at 390 nm and emission wavelengths in the range 410–610 nm; the PM was usually set at 600 V with slits of 10 nm at both excitation and emission. […] The steady-state fluorescence anisotropy was calculated using: r = (IVV − G × IVH)/(IVV + 2G × IVH) where IVV and IVH correspond to vertical and horizontal components, respectively, when the sample is excited with vertically polarized light, G is the G-factor accounting for the difference in the monochromator transmission between // and ⊥ polarized components (G = IHV/IHH). […]

nNOS [8] = target: T1, nNOS; experiment: Fluorescence titration of NT binding to recombinant nNOS; design: made in house; conditions: [nNOS] = 0–10 µM, 10 mM Tris pH 7.2, 100 mM NaCl, read-out: Apparent Kd nNOS
Protocol: as §1

In the case of `NC(=O)C1=CN([C@@H]2O[C@H](COP(=O)(O)OP(=O)(O)OC[C@H]3O[C@@H](n4cnc5c(N)ncnc54)[C@H](OP(=O)(O)O)[C@@H]3O)[C@@H](O)[C@H]2O)C=CC1` [NADPH], the Km (nNOS [1]) is listed as 5.5 µM.
For `CN(Cc1cn(C[C@H]2O[C@@H](n3cnc4c(N)ncnc43)[C@H](OCC(=O)O)[C@@H]2O)nn1)c1ccc(/C=C/C=C/c2ccc(N)cc2)cc1` [NT2_7], the “NO Formed upon Laser Excitation” value (HUVEC cells [2]) is listed as “−”, the “NO produced in HUVEC cells upon light activation (in words)” value (shortened to “NO produced”) (HUVEC cells [2]) is listed as “unable to generate NO” and the Kd (nNOS [3]) is listed as 30 ± 4 µM.
For `CCN(CCNC(=O)[C@H]1O[C@@H](n2cnc3c(N)ncnc32)[C@H](OP(=O)(O)O)[C@@H]1O)c1ccc(/C=C/C=C/c2ccc(N)cc2)cc1` [NT1], the “NO Formed upon Laser Excitation” value (HUVEC cells [2]) is listed as “+”, the “NO produced” value (HUVEC cells [2]) is listed as “produced NO upon light activation” and the “Self-association (in words)” value [4] is listed as “did not self-associate”. For the same compound, the “Not toxic to HUVEC up to concentration” value (HUVEC cells [5]) was “up to 20 µM”, the “Time of initiation and synchronization of NOS catalysis after photoexcitation” value (NOS) was 15–20 ps and the “FAD/flavin reduction upon light excitation (in words)” value (nNOS [6]) was “reduced FAD upon light excitation”.
In the case of `CN(Cc1cn(C[C@H]2O[C@@H](n3cnc4c(N)ncnc43)[C@H](OCC(=O)O)[C@@H]2OCC(=O)O)nn1)c1ccc(/C=C/C=C/c2ccc(N)cc2)cc1` [NT2_3], the “NO Formed upon Laser Excitation” value (HUVEC cells [2]) is given as “−” and the “FAD/flavin reduction upon light excitation (in words)” value (nNOS [6]) is given as “could not reduce FAD”.
In the case of `CN(Cc1cn(C[C@H]2O[C@@H](n3cnc4c(N)ncnc43)[C@H](O)[C@@H]2OCC(=O)O)nn1)c1ccc(/C=C/C=C/c2ccc(N)cc2)cc1` [NT2_5], the “Concentration above which fluorescence of free NT deviates from linearity (self-association)” value ([7]; free NT in buffer, fluorescence at 460 nm, order NT3_3 > NT3_5 > NT2_5 > NT3_7) is given as “above 5 µM”, the “NO Formed upon Laser Excitation” value (HUVEC cells [2]) is given as “+” and the “NO produced” value (HUVEC cells [2]) is given as “produced NO upon light activation”. The “Cytotoxicity in HUVEC cells above concentration” value (HUVEC cells [5]; second generation of NT) was “above 5 µM”, the Kd (nNOS [8]; b: [NTs] = 1 or 2 µM) was 1.3 ± 0.2 µM and the Kd (nNOS [8]; c: [NTs] = 2 µM, 100 mM NOHA) was 4 ± 0.7 µM. For the same compound, the “FAD/flavin reduction upon light excitation (in words)” value (nNOS [6]) was “reduced FAD upon light excitation” and the “Ground state (dark) FAD reduction, no light (in words)” value (nNOS [6]; no light) was “some ground state reduction; also recorded: can reduce FAD in the ground state”.
With `O=C1OC2(c3ccc(O)cc3Oc3cc(O)ccc32)c2ccccc21` [fluorescein, reference compound] the “Steady-state fluorescence anisotropy r” value ([7]; nNOS-free, NT3_3 at 5 µM, fluorescein as freely rotating monomer) was 0.005.
